Results taken from publication PMC10172623 (Computational and Structural Biotechnology Journal, 2023).

What was measured:
[1] = biological target: TylF (Streptomyces fradiae, UniProt Q9S4D5); assay: biochemical
[2] = biological target: TylF (Streptomyces fradiae, UniProt Q9S4D5, Y139F); assay: biochemical
Chain of TylF (Streptomyces fradiae, UniProt Q9S4D5, Y139F) (Q9S4D5 whole entry Y139F): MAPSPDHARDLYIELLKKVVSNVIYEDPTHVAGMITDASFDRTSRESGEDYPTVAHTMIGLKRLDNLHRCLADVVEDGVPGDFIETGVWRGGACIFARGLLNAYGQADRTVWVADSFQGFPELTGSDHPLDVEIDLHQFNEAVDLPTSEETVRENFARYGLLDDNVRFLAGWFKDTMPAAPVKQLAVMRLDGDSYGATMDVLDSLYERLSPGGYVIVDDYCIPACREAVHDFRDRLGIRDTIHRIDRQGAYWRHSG

Chain of TylF (Streptomyces fradiae, UniProt Q9S4D5) (Q9S4D5 whole entry): as the sequence (Q9S4D5 whole entry Y139F) above, with F139Y counted along it

C[S+](CC[C@H](N)C(=O)O)C[C@H]1O[C@@H](n2cnc3c(N)ncnc32)[C@H](O)[C@@H]1O (some centres unmarked) [SAM]
Kd [1]: 162 ± 91.6 µM | Kd [2]: 265 ± 24.3 µM
